Data as given in US4933347A, “Diamidines and bis(imidazolines) for the treatment of and prophylaxis against pneumocystis carinii pneumonia” (University of North Carolina at Chapel Hill, priority 1988, dated 1990).

Legend:
[1] = Solubility (insoluble, not tested in animals); format: physicochemical
Pneumocystis carinii [2] = assay: Treatment of Pneumocystis carinii pneumonia in Sprague-Dawley rats (extent of disease by histologic score); format: in vivo, male Sprague-Dawley rats; settings: for Extent of Disease by Histologic Score: number of animals with score 0.5 / Extent of disease by histologic score (combined): number of animals in scoring group 0.5: 0.5 = <10 cysts found per 2 sections; for Extent of Disease by Histologic Score: number of animals with score 1 / Extent of disease by histologic score (combined): number of animals in scoring group 1: 1 = scattered cysts, <5% of lung involved; for Extent of Disease by Histologic Score: number of animals with score 2 / Extent of disease by histologic score (combined): number of animals in scoring group 2: 2 = scattered cysts; for Extent of Disease by Histologic Score: number of animals with score 2: 5-10% lung involved or small foci of infection; for Extent of Disease by Histologic Score: number of animals with score 3 / Extent of disease by histologic score (combined): number of animals in scoring group 3: 3 = scattered cysts; for Extent of disease by histologic score (combined): number of animals in scoring group 0.5 / Extent of disease by histologic score (combined): number of animals in scoring group 1 / Extent of disease by histologic score (combined): number of animals in scoring group 2 / Extent of disease by histologic score (combined): number of animals in scoring group 3 / Extent of disease by histologic score (combined): number of animals in scoring group 4: Table XII composite; for Extent of disease by histologic score (combined): number of animals in scoring group 2: 5-10% of lung involved; for Efficacy in treating Pneumocystis carinii (words): 2.5 mg/kg
Pneumocystis carinii [3] = settings: in vivo; cited from earlier work
[4] = Toxicity of amidines in rats (standard laboratory procedure); format: in vivo
Description: Compounds having the structure represented by Formula I were synthesized in accordance with the appropriate procedures discussed previously. The reaction schemes shown in Charts I-III specifically identify the methodology used to synthesize the compounds of the respective examples. The compounds which were synthesized are shown in Table IA and the elemental analysis and melting points of the compounds are shown in Table IB. Most of the compounds were tested for toxicity in rats using standard laboratory procedure and the results of that toxicity testing are shown in Table XII. The compounds of Examples 31, 32, and 34 were not synthesized but may be synthesized in the general manner discussed previously.

[5] = intramuscular and intravenous routes; cited from earlier work
[6] = dose as in value, else not given in Table XIII (10 mg/kg test dose)
[7] = 2.5 mg/kg i.v. daily, 14 days, 10-50% of lung involved with some intense areas of infection
[8] = 2.5 mg/kg i.v. daily, 14 days, 4 = >50% of lung involved with many intense areas of focal infection
[9] = tested at 2.5 mg/kg, 10-50% of lung involved
[10] = tested at 2.5 mg/kg, 4 = >50% of lung involved

## N=C(N)c1ccc(OCCOc2ccc(C(=N)N)cc2)cc1 [Example 1]
[1]
  Solubility (not tested in animals - insoluble): insoluble

## N=C(N)c1ccc(OCCOc2ccc(C(=N)N)cc2[N+](=O)[O-])c([N+](=O)[O-])c1 [Example 2]
[1]
  Solubility (not tested in animals - insoluble): insoluble

## N=C(N)c1ccc(OCCCCCOc2ccc(C(=N)N)cc2)cc1 [Example 12, Pentamidine, reference compound]
Pneumocystis carinii [2]; 0.1 mg/kg
  Extent of Disease by Histologic Score: number of animals with score 0.5: 0 animals
  Extent of Disease by Histologic Score: number of animals with score 1: 0 animals
  Extent of Disease by Histologic Score: number of animals with score 2: 0 animals
Pneumocystis carinii [2]; 0.1 mg/kg, 10-50% of lung involved
  Extent of Disease by Histologic Score: number of animals with score 3: 7 animals
Pneumocystis carinii [2]; 0.1 mg/kg, 4 = >50% of lung involved
  Extent of Disease by Histologic Score: number of animals with score 4: 5 animals
Pneumocystis carinii [2]; 1 mg/kg
  Extent of Disease by Histologic Score: number of animals with score 0.5: 1 animals
  Extent of Disease by Histologic Score: number of animals with score 1: 0 animals
  Extent of Disease by Histologic Score: number of animals with score 2: 3 animals
Pneumocystis carinii [2]; 1 mg/kg, 10-50% of lung involved
  Extent of Disease by Histologic Score: number of animals with score 3: 5 animals
Pneumocystis carinii [2]; 1 mg/kg, 4 = >50% of lung involved
  Extent of Disease by Histologic Score: number of animals with score 4: 3 animals
Pneumocystis carinii [2]; 10 mg/kg i.v. daily, 14 days, 4 = >50% of lung involved with many intense areas of focal infection
  Extent of Disease by Histologic Score: number of animals with score 4: 0 animals
Pneumocystis carinii [2]; 10 mg/kg
  Extent of disease by histologic score (combined): number of animals in scoring group 0.5: 20 animals
  Extent of disease by histologic score (combined): number of animals in scoring group 1: 26 animals
  Extent of disease by histologic score (combined): number of animals in scoring group 2: 12 animals
Pneumocystis carinii [2]; 10 mg/kg, 10-50% of lung involved
  Extent of disease by histologic score (combined): number of animals in scoring group 3: 2 animals
Pneumocystis carinii [2]; 10 mg/kg, 4 = >50% of lung involved
  Extent of disease by histologic score (combined): number of animals in scoring group 4: 0 animals
Pneumocystis carinii [3]
  Known effectiveness against Pneumocystis carinii pneumonia: effective in the treatment of, or prophylaxis against Pneumocystis carinii pneumonia
[4]; [6]
  Toxicity of amidines: Effect: Some hypotension, edematous tails

## N=C(N)c1ccc(OCCCCCOc2ccc(C(=N)N)cc2Br)c(Br)c1 [Example 16]
[1]
  Solubility (not tested in animals - insoluble): insoluble

## CN1CCN=C1c1ccc(OCCCCCOc2ccc(C3=NCCN3C)cc2)cc1 [Example 42]
Pneumocystis carinii [2]; 2.5 mg/kg i.v. daily, 14 days
  Extent of Disease by Histologic Score: number of animals with score 0.5: 0 animals
  Extent of Disease by Histologic Score: number of animals with score 1: 0 animals
  Extent of Disease by Histologic Score: number of animals with score 2: 2 animals
Pneumocystis carinii [2]; [7]
  Extent of Disease by Histologic Score: number of animals with score 3: 3 animals
Pneumocystis carinii [2]; [8]
  Extent of Disease by Histologic Score: number of animals with score 4: 3 animals
Pneumocystis carinii [2]; tested at 2.5 mg/kg
  Extent of disease by histologic score (combined): number of animals in scoring group 0.5: 0 animals
  Extent of disease by histologic score (combined): number of animals in scoring group 1: 0 animals
  Extent of disease by histologic score (combined): number of animals in scoring group 2: 2 animals
Pneumocystis carinii [2]; [9]
  Extent of disease by histologic score (combined): number of animals in scoring group 3: 3 animals
Pneumocystis carinii [2]; [10]
  Extent of disease by histologic score (combined): number of animals in scoring group 4: 3 animals
[4]; [6]
  Toxicity of amidines: Effect: Acute toxicity at 10 mg/kg and 5 mg/kg
[4]; rat, in vivo, 2.5 mg/kg
  Toxicity of amidines: Effect: no toxicity

## COc1cc(C2=NCCN2)ccc1OCCCCCOc1ccc(C2=NCCN2)cc1OC [Example 43]
Pneumocystis carinii [2]; 5 mg/kg i.v. daily, 14 days
  Extent of Disease by Histologic Score: number of animals with score 0.5: 1 animals
  Extent of Disease by Histologic Score: number of animals with score 1: 3 animals
  Extent of Disease by Histologic Score: number of animals with score 2: 1 animals
Pneumocystis carinii [2]; 5 mg/kg i.v. daily, 14 days, 10-50% of lung involved with some intense areas of infection
  Extent of Disease by Histologic Score: number of animals with score 3: 2 animals
Pneumocystis carinii [2]; 5 mg/kg i.v. daily, 14 days, 4 = >50% of lung involved with many intense areas of focal infection
  Extent of Disease by Histologic Score: number of animals with score 4: 0 animals
Pneumocystis carinii [2]; tested at 5 mg/kg
  Extent of disease by histologic score (combined): number of animals in scoring group 0.5: 1 animals
  Extent of disease by histologic score (combined): number of animals in scoring group 1: 3 animals
  Extent of disease by histologic score (combined): number of animals in scoring group 2: 1 animals
Pneumocystis carinii [2]; tested at 5 mg/kg, 10-50% of lung involved
  Extent of disease by histologic score (combined): number of animals in scoring group 3: 2 animals
Pneumocystis carinii [2]; tested at 5 mg/kg, 4 = >50% of lung involved
  Extent of disease by histologic score (combined): number of animals in scoring group 4: 0 animals
Pneumocystis carinii [2]; compound at 5 mg/kg
  Efficacy in treating PCP compared with control: significantly better than the control
[4]; rat, in vivo, 5 mg/kg
  Toxicity of amidines: Effect: no toxicity

## COc1cc(C2=NCCN2)ccc1OCCCOc1ccc(C2=NCCN2)cc1OC [Example 44]
Pneumocystis carinii [2]
  Efficacy in treating Pneumocystis carinii (words): very effective in treating Pneumocystis carinii
Pneumocystis carinii [2]; 2.5 mg/kg i.v. daily, 14 days
  Extent of Disease by Histologic Score: number of animals with score 0.5: 6 animals
  Extent of Disease by Histologic Score: number of animals with score 1: 2 animals
  Extent of Disease by Histologic Score: number of animals with score 2: 0 animals
Pneumocystis carinii [2]; [7]
  Extent of Disease by Histologic Score: number of animals with score 3: 0 animals
Pneumocystis carinii [2]; [8]
  Extent of Disease by Histologic Score: number of animals with score 4: 0 animals
Pneumocystis carinii [2]; listed as Compound 44
  Efficacy in treating Pneumocystis carinii (words): very good at one fourth the dose level of pentamidine
Pneumocystis carinii [2]; tested at 2.5 mg/kg
  Extent of disease by histologic score (combined): number of animals in scoring group 0.5: 6 animals
  Extent of disease by histologic score (combined): number of animals in scoring group 1: 2 animals
  Extent of disease by histologic score (combined): number of animals in scoring group 2: 0 animals
Pneumocystis carinii [2]; [9]
  Extent of disease by histologic score (combined): number of animals in scoring group 3: 0 animals
Pneumocystis carinii [2]; [10]
  Extent of disease by histologic score (combined): number of animals in scoring group 4: 0 animals
Pneumocystis carinii [2]; compound at 2.5 mg/kg
  Efficacy in treating PCP compared with pentamidine: much better than pentamidine at only one fourth the dose
[4]; rat, in vivo, 2.5 mg/kg
  Toxicity of amidines: Effect: no toxicity

## N=C(N)c1ccc(OCCCOc2ccc(C(=N)N)cc2Br)c(Br)c1 [dibromopropamidine]
Pneumocystis carinii [3]
  Known effectiveness against Pneumocystis carinii pneumonia: some effectiveness against PCP

## N=C(N)c1ccc(OCCCCCOc2ccc(C(=N)N)cc2)cc1 [pentamidine isethionate]
[5]
  Side effects / toxicity in patients: Some fatalities have been attributed to severe hypotension, hypoglycemia, and cardiac arrhythmias
